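In this assay, cells in 96-well plates receive the compound at five concentrations for 48 hours. Endpoints are linearly interpolated between the surrounding concentrations. GI50 = concentration required for 50% inhibition of growth. TGI: concentration producing complete growth inhibition.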
Legend:
Experiment in all cases: NCI-60 cell line screen, 48 h
K-562 leukemia = system: K-562 leukemia
CCRF-CEM leukemia = system: CCRF-CEM leukemia
MDA-MB-231 breast = system: MDA-MB-231 breast
HCT-116 colon = system: HCT-116 colon
UACC-257 melanoma = system: UACC-257 melanoma
DU-145 prostate = system: DU-145 prostate
HCT-15 colon = system: HCT-15 colon
U251 CNS = system: U251 CNS
OVCAR-3 ovarian = system: OVCAR-3 ovarian
LOX IMVI melanoma = system: LOX IMVI melanoma
OVCAR-5 ovarian = system: OVCAR-5 ovarian
HL-60(TB) leukemia = system: HL-60(TB) leukemia
COLO 205 colon = system: COLO 205 colon
NCI-H23 lung = system: NCI-H23 lung

## CCOP(=O)(Cc1nc(C#N)c(N)o1)OCC
K-562 leukemia
  TGI: > 100 µM
CCRF-CEM leukemia
  TGI: > 100 µM
MDA-MB-231 breast
  TGI: > 100 µM
HCT-116 colon
  TGI: > 100 µM
UACC-257 melanoma
  TGI: > 100 µM
DU-145 prostate
  TGI: > 100 µM
HCT-15 colon
  TGI: > 100 µM
U251 CNS
  TGI: > 100 µM
OVCAR-3 ovarian
  TGI: > 100 µM
LOX IMVI melanoma
  TGI: > 100 µM
OVCAR-5 ovarian
  TGI: > 100 µM
HL-60(TB) leukemia
  TGI: > 100 µM
COLO 205 colon
  TGI: > 100 µM

## OC(CCl)CN1CC[N+]2(CC1)CC[N+]1(CCN(CC(O)CCl)CC1)CC2 (stereo unspecified)
K-562 leukemia
  TGI: > 50 µM
CCRF-CEM leukemia
  TGI: > 50 µM
HCT-116 colon
  TGI: > 50 µM
HCT-15 colon
  TGI: > 50 µM
U251 CNS
  TGI: > 50 µM
OVCAR-3 ovarian
  TGI: > 50 µM
NCI-H23 lung
  TGI: > 50 µM
HL-60(TB) leukemia
  TGI: > 50 µM
COLO 205 colon
  TGI: > 50 µM

## CSc1c(C)n([O-])c2cc(Cl)c(Cl)cc2[n+]1=O
K-562 leukemia
  TGI: 11.1 µM
CCRF-CEM leukemia
  TGI: 4.58 µM
MDA-MB-231 breast
  TGI: 37.9 µM
HCT-116 colon
  TGI: 32 µM
UACC-257 melanoma
  TGI: 34.8 µM
DU-145 prostate
  TGI: 30.9 µM
HCT-15 colon
  TGI: 49.6 µM
U251 CNS
  TGI: 46.3 µM
OVCAR-3 ovarian
  TGI: 33.1 µM
LOX IMVI melanoma
  TGI: 41.3 µM
OVCAR-5 ovarian
  TGI: 29.8 µM
NCI-H23 lung
  TGI: 31.8 µM
COLO 205 colon
  TGI: 41.7 µM

## CCCCCCCCCCOc1ccc(N=Nc2nnc(-c3ccc(OCCCCC)cc3)s2)cc1
K-562 leukemia
  TGI: > 100 µM
CCRF-CEM leukemia
  TGI: > 100 µM
MDA-MB-231 breast
  TGI: > 100 µM
HCT-116 colon
  TGI: > 100 µM
UACC-257 melanoma
  TGI: > 100 µM
DU-145 prostate
  TGI: > 100 µM
HCT-15 colon
  TGI: > 100 µM
U251 CNS
  TGI: > 100 µM
OVCAR-3 ovarian
  TGI: > 100 µM
LOX IMVI melanoma
  TGI: > 100 µM
OVCAR-5 ovarian
  TGI: > 100 µM
NCI-H23 lung
  TGI: > 100 µM
COLO 205 colon
  TGI: > 100 µM

## O=[N+]([O-])c1ccc(Nc2cccc3c2[nH]c2c(-c4ccccc4)nccc23)c([N+](=O)[O-])c1
K-562 leukemia
  TGI: > 100 µM
CCRF-CEM leukemia
  TGI: > 100 µM
HCT-116 colon
  TGI: > 100 µM
UACC-257 melanoma
  TGI: > 100 µM
HCT-15 colon
  TGI: > 100 µM
U251 CNS
  TGI: > 100 µM
OVCAR-3 ovarian
  TGI: > 100 µM
LOX IMVI melanoma
  TGI: > 100 µM
OVCAR-5 ovarian
  TGI: > 100 µM
NCI-H23 lung
  TGI: > 100 µM
HL-60(TB) leukemia
  TGI: > 100 µM
COLO 205 colon
  TGI: > 100 µM

## CCN(CC)C(=O)c1cc([N+](=O)[O-])c(=O)n2c1[nH]c1ccccc12
K-562 leukemia
  TGI: > 100 µM
CCRF-CEM leukemia
  TGI: > 100 µM
MDA-MB-231 breast
  TGI: > 100 µM
HCT-116 colon
  TGI: > 100 µM
UACC-257 melanoma
  TGI: > 100 µM
DU-145 prostate
  TGI: > 100 µM
OVCAR-3 ovarian
  TGI: > 100 µM
LOX IMVI melanoma
  TGI: > 100 µM
OVCAR-5 ovarian
  TGI: > 100 µM
NCI-H23 lung
  TGI: > 100 µM
HL-60(TB) leukemia
  TGI: > 100 µM
COLO 205 colon
  TGI: > 100 µM

## COc1ccc(C2=NN(c3nsc4ccccc34)C(=O)CC2)cc1
K-562 leukemia
  TGI: > 100 µM
CCRF-CEM leukemia
  TGI: > 100 µM
HCT-116 colon
  TGI: > 100 µM
UACC-257 melanoma
  TGI: > 100 µM
HCT-15 colon
  TGI: > 100 µM
U251 CNS
  TGI: > 100 µM
OVCAR-3 ovarian
  TGI: > 100 µM
LOX IMVI melanoma
  TGI: > 100 µM
OVCAR-5 ovarian
  TGI: > 100 µM
NCI-H23 lung
  TGI: > 100 µM
HL-60(TB) leukemia
  TGI: > 100 µM
COLO 205 colon
  TGI: > 100 µM

## CC(C)(C)CC(C)(C)NCC(O)COc1ccc(C(C)(C)c2ccc(OCC(O)CNC(C)(C)CC(C)(C)C)cc2)cc1 (stereo unspecified)
K-562 leukemia
  TGI: 1.16 µM
CCRF-CEM leukemia
  TGI: 1.03 µM
HCT-116 colon
  TGI: 5.38 µM
DU-145 prostate
  GI50: 1.39 µM
  TGI: 2.75 µM
HCT-15 colon
  TGI: 2.69 µM
U251 CNS
  TGI: 2.2 µM
OVCAR-3 ovarian
  TGI: 2.47 µM
LOX IMVI melanoma
  TGI: 1.35 µM
OVCAR-5 ovarian
  TGI: 3.32 µM
NCI-H23 lung
  TGI: 3.14 µM
COLO 205 colon
  TGI: 1.47 µM

## CCN(CCC#N)C(=O)Nc1ccccc1
K-562 leukemia
  TGI: > 100 µM
CCRF-CEM leukemia
  TGI: > 100 µM
MDA-MB-231 breast
  TGI: > 100 µM
HCT-116 colon
  TGI: > 100 µM
UACC-257 melanoma
  TGI: > 100 µM
DU-145 prostate
  TGI: > 100 µM
HCT-15 colon
  TGI: > 100 µM
U251 CNS
  TGI: > 100 µM
OVCAR-3 ovarian
  TGI: > 100 µM
LOX IMVI melanoma
  TGI: > 100 µM
OVCAR-5 ovarian
  TGI: > 100 µM
NCI-H23 lung
  TGI: > 100 µM
COLO 205 colon
  TGI: > 100 µM

## CN1C/C(=C\c2cccs2)C(=O)/C(=C/c2cccs2)C1
K-562 leukemia
  TGI: > 100 µM
CCRF-CEM leukemia
  TGI: 26.7 µM
MDA-MB-231 breast
  TGI: 48.3 µM
HCT-116 colon
  TGI: 34.4 µM
UACC-257 melanoma
  TGI: > 100 µM
DU-145 prostate
  TGI: > 100 µM
HCT-15 colon
  TGI: > 100 µM
U251 CNS
  TGI: 30.7 µM
OVCAR-3 ovarian
  TGI: > 100 µM
LOX IMVI melanoma
  TGI: 41 µM
OVCAR-5 ovarian
  TGI: 66.8 µM
NCI-H23 lung
  TGI: > 100 µM
COLO 205 colon
  TGI: 91.7 µM

## N=C(N)c1ccc(-c2ccc(-c3ccc(Cl)cc3Cl)s2)nc1
CCRF-CEM leukemia
  GI50: 2.27 µM
  TGI: 5.01 µM
MDA-MB-231 breast
  GI50: 1.68 µM
  TGI: 3.26 µM
DU-145 prostate
  GI50: 1.85 µM
  TGI: 3.27 µM
OVCAR-3 ovarian
  GI50: 1.83 µM
  TGI: 3.35 µM
OVCAR-5 ovarian
  GI50: 1.71 µM
  TGI: 3.21 µM
NCI-H23 lung
  GI50: 1.65 µM
  TGI: 3.19 µM

## CC1=NN(c2nc(N)nc(-c3cc4ccccc4oc3=N)n2)C(C)(C)C1
K-562 leukemia
  TGI: 53.1 µM
CCRF-CEM leukemia
  TGI: 48.6 µM
MDA-MB-231 breast
  TGI: 43.4 µM
HCT-116 colon
  TGI: 35.5 µM
UACC-257 melanoma
  TGI: 31.4 µM
DU-145 prostate
  TGI: 53.7 µM
HCT-15 colon
  TGI: 35.9 µM
U251 CNS
  TGI: 76.8 µM
OVCAR-3 ovarian
  TGI: 31.6 µM
OVCAR-5 ovarian
  TGI: 60.1 µM
NCI-H23 lung
  TGI: 29.7 µM
HL-60(TB) leukemia
  TGI: 46.2 µM
COLO 205 colon
  TGI: 31.1 µM

## O=C1c2cc3ncsc3cc2C(=O)c2c(O)ccc(O)c21
K-562 leukemia
  TGI: > 100 µM
CCRF-CEM leukemia
  TGI: > 100 µM
MDA-MB-231 breast
  TGI: > 100 µM
HCT-116 colon
  TGI: > 100 µM
UACC-257 melanoma
  TGI: > 100 µM
DU-145 prostate
  TGI: > 100 µM
HCT-15 colon
  TGI: > 100 µM
U251 CNS
  TGI: > 100 µM
OVCAR-3 ovarian
  TGI: > 100 µM
LOX IMVI melanoma
  TGI: > 100 µM
OVCAR-5 ovarian
  TGI: > 100 µM
NCI-H23 lung
  TGI: > 100 µM
COLO 205 colon
  TGI: > 100 µM

## C=C(Cl)CN1c2ccccc2C=Cc2ccccc21
MDA-MB-231 breast
  TGI: 35.7 µM
HCT-116 colon
  TGI: 29 µM
UACC-257 melanoma
  TGI: 49.8 µM
DU-145 prostate
  TGI: > 100 µM
HCT-15 colon
  TGI: > 100 µM
U251 CNS
  TGI: 30.9 µM
OVCAR-3 ovarian
  TGI: 33.9 µM
LOX IMVI melanoma
  TGI: 52.4 µM
OVCAR-5 ovarian
  TGI: 50.8 µM
NCI-H23 lung
  TGI: > 100 µM
COLO 205 colon
  TGI: 30.4 µM

## CCc1n[nH]c(=O)[nH]1
K-562 leukemia
  TGI: > 100 µM
CCRF-CEM leukemia
  TGI: > 100 µM
MDA-MB-231 breast
  TGI: > 100 µM
HCT-116 colon
  TGI: > 100 µM
UACC-257 melanoma
  TGI: > 100 µM
DU-145 prostate
  TGI: > 100 µM
HCT-15 colon
  TGI: > 100 µM
OVCAR-3 ovarian
  TGI: > 100 µM
LOX IMVI melanoma
  TGI: > 100 µM
OVCAR-5 ovarian
  TGI: > 100 µM
NCI-H23 lung
  TGI: > 100 µM
COLO 205 colon
  TGI: > 100 µM

## CSc1nc(-c2ccccc2)nc(=[N+]2CCOCC2)s1
K-562 leukemia
  TGI: > 100 µM
CCRF-CEM leukemia
  TGI: 62.6 µM
HCT-116 colon
  TGI: > 100 µM
HCT-15 colon
  TGI: > 100 µM
U251 CNS
  TGI: > 100 µM
OVCAR-3 ovarian
  TGI: > 100 µM
LOX IMVI melanoma
  TGI: > 100 µM
OVCAR-5 ovarian
  TGI: > 100 µM
NCI-H23 lung
  TGI: > 100 µM
HL-60(TB) leukemia
  TGI: > 100 µM
COLO 205 colon
  TGI: 98.7 µM

## CC(C)N1[C@@H]2CCCC[C@H]2N(C(C)C)[P+]1=O
K-562 leukemia
  TGI: > 100 µM
CCRF-CEM leukemia
  TGI: > 100 µM
HCT-116 colon
  TGI: > 100 µM
UACC-257 melanoma
  TGI: > 100 µM
DU-145 prostate
  TGI: > 100 µM
HCT-15 colon
  TGI: > 100 µM
OVCAR-3 ovarian
  TGI: > 100 µM
OVCAR-5 ovarian
  TGI: > 100 µM
NCI-H23 lung
  TGI: > 100 µM
COLO 205 colon
  TGI: > 100 µM

## Cc1cc(OCC(O)CO)ccc1Cl (stereo unspecified)
K-562 leukemia
  TGI: > 100 µM
CCRF-CEM leukemia
  TGI: > 100 µM
HCT-116 colon
  TGI: > 100 µM
UACC-257 melanoma
  TGI: > 100 µM
HCT-15 colon
  TGI: > 100 µM
U251 CNS
  TGI: > 100 µM
OVCAR-3 ovarian
  TGI: > 100 µM
LOX IMVI melanoma
  TGI: > 100 µM
OVCAR-5 ovarian
  TGI: > 100 µM
NCI-H23 lung
  TGI: > 100 µM
HL-60(TB) leukemia
  TGI: > 100 µM
COLO 205 colon
  TGI: > 100 µM
